In patent US11814379B2, “Cyano quinoline amide compounds as HER2 inhibitors and methods of use” (DANA-FARBER CANCER INSTITUTE, INC., priority 2018, dated 2023):

Columns and labels:
H1781 (HER2 InsVC) = assay: Antiproliferative activities in lung cancer cells, H1781; format: cell-based; conditions: NCI-H1781
Protocol: (§1) Cell growth and growth inhibition were evaluated by […] (MTS) assay. A total of 3,000-4,000 cells were plated per well in 96-well plates and treated with each drug (at a dose range from 1 nM to 10 μM) for 3 days. Each experimental point was conducted in six replicates and all tests were repeated more than three times. IC50 data was obtained from a nonlinear regression model with sigmoidal dose response using GraphPad Prism (GraphPad Software, Inc.).
(§2) All ERBB insertion mutations were generated by using the Quikchange II XL Site-Directed Mutagenesis Kit (Agilent Tech) according to the manufacturer's protocol. The insertion mutations and wildtype form of human EGFR and HER2 were transduced into Ba/F3 cells by retroviral infection followed by treatment of puromycin and withdrawal of interleukin-3 for selection. Transformed Ba/F3 cells and the NSCLC cell line H1781 (with HER2 insertion VC) were cultured in Roswell Park Memorial Institute-1640 medium (Gibco) with 10% fetal bovine serum and 1% penicillin/streptomycin (Gibco). Wild-type EGFR Ba/F3 cells were cultured in the same media supplemented with EGF (10 ng/ml).
(§3) Cell growth inhibition was assessed by MTS assay for Ba/F3 and H1781 cells. A total of 3,000-4,000 cells were seeded for per well in 96-well plates, and were exposed to representative compounds of the application (1 nM to 10 μM) for 72 hours. All experimental points included 6 wells. […] The growth curves were fitted using a nonlinear regression model with sigmoidal dose response.
(§4) Activities of representative compounds of the present application in inhibiting HER2 were tested by MTS assay (for Ba/F3 cells and H1781 cells). For each assay, a total of 3,000-4,000 cells were seeded per well in 96-well plates and were exposed to indicated compounds with a concentration of […] for 72 hours.

HER2 mutations = conditions: Phase I and II clinical data; cited from earlier work
[1] = test system: DFCI429 (Her2 amplification); assay: Antiproliferative activities in lung cancer cells, DFCI429; format: cell-based
Protocol: as §1

[2] = test system: Calu-3 (Her2 amplification); assay: Antiproliferative activities in lung cancer cells, Calu-3; format: cell-based; conditions: Homo sapiens
Protocol: as §1

[3] = target: T1, HER2 insYVMA (A775_G776insYVMA) (Homo sapiens, UniProt P04626, INS775YVMA); conditions: afatinib as a single agent; dacomitinib phase II trial, 13 patients; cited from earlier work
T1 construct: no response in all 13 patients with HER2 insYVMA (A775_G776insYVMA); host or cells: patients' tumours

[4] = test system: H1819 (Her2 amplification); assay: Antiproliferative activities in lung cancer cells, H1819; format: cell-based; conditions: NCI-H1819
Protocol: as §1

Ba/F3 cells WT EGFR = Ba/F3 cells WT EGFR (Homo sapiens, UniProt P00533); assay: Antiproliferative activities (MTS assay), Ba/F3 cells WT EGFR; format: cell-based; conditions: 72 hours
Chain of Ba/F3 cells WT EGFR (P00533 whole entry, change not shown): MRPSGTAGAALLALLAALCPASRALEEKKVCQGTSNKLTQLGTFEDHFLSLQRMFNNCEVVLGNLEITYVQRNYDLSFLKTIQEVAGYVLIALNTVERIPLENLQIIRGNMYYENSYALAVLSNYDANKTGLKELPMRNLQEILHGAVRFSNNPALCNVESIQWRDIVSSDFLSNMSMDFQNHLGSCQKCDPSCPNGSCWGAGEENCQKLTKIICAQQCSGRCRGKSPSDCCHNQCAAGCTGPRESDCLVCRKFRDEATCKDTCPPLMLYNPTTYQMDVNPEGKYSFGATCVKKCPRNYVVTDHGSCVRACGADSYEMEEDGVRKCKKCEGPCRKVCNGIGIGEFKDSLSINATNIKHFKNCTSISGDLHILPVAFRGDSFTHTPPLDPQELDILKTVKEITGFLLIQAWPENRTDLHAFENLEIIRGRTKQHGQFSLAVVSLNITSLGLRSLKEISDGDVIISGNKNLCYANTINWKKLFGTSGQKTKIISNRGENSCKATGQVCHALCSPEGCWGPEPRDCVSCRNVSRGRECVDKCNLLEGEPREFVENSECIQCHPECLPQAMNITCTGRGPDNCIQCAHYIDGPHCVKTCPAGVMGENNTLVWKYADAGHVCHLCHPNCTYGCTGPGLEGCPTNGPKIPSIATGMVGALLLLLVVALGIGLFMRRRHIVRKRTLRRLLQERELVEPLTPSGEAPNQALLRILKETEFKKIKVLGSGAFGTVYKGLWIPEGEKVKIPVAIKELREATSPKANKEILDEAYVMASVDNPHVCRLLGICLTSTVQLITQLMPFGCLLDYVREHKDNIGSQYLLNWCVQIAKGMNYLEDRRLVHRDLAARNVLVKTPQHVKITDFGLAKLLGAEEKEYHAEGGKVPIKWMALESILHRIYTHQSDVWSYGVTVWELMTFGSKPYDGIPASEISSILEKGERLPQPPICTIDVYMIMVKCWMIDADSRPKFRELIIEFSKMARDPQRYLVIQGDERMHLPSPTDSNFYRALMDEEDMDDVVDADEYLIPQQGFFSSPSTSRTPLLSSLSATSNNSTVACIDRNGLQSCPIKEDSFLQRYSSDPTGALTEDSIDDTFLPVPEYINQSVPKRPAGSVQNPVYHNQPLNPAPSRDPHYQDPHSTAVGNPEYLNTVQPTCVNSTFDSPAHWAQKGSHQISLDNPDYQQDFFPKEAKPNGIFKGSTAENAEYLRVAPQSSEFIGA
Protocol: as §1
as §2, with “Transformed Ba/F3 cells and the NSCLC cell line H1781 (with HER2 insertion VC) were cultured in Roswell Park Memorial Institute-1640 medium (Gibco) with 10% fetal bovine serum and 1% penicillin/streptomycin (Gibco).” left out
as §3, §4

Ba/F3 cells HER2 InsGSP = Ba/F3 cells HER2 InsGSP (Homo sapiens, UniProt P04626, DUP778-780, cells depend on it); assay: Antiproliferative activities (MTS assay), Ba/F3 cells HER2 InsGSP; format: cell-based; conditions: 72 hours
Protocol: as §1
as §2, with “Transformed Ba/F3 cells and the NSCLC cell line H1781 (with HER2 insertion VC) were cultured in Roswell Park Memorial Institute-1640 medium (Gibco) with 10% fetal bovine serum and 1% penicillin/streptomycin (Gibco).” left out
as §3, §4

Ba/F3 cells WT HER2 [5] = target: T2, Ba/F3 cells WT HER2 (Homo sapiens, UniProt P04626); assay: Antiproliferative activities (MTS assay), Ba/F3 cells WT HER2; format: cell-based; conditions: Ba/F3 cells, 72 hours, MTS
T2 construct: Antiproliferative Activities (Ba/F3 cells) WT HER2; other: Ba/F3 cells, 72 hours, MTS
Protocol: as §1
as §2, with “Transformed Ba/F3 cells and the NSCLC cell line H1781 (with HER2 insertion VC) were cultured in Roswell Park Memorial Institute-1640 medium (Gibco) with 10% fetal bovine serum and 1% penicillin/streptomycin (Gibco).” left out
as §3, §4

Ba/F3 cells WT HER2 [6] = assay: as above; format: cell-based, human; conditions: for EGFR EC50/HER2 EC50: Ba/F3 cells, ratio WT EGFR to WT HER2
Protocol: as §1
as §2, with “Transformed Ba/F3 cells and the NSCLC cell line H1781 (with HER2 insertion VC) were cultured in Roswell Park Memorial Institute-1640 medium (Gibco) with 10% fetal bovine serum and 1% penicillin/streptomycin (Gibco).” left out
as §3, §4

WT HER2 = WT HER2 (Homo sapiens, UniProt P04626); assay: Biochemical activities, WT HER2
Ba/F3 cells HER2 InsYVMA = Ba/F3 cells HER2 InsYVMA (Homo sapiens, UniProt P04626, DUP772-775, cells depend on it); assay: Antiproliferative activities (MTS assay), Ba/F3 cells HER2 InsYVMA; format: cell-based; conditions: 72 hours
Protocol: as §1
as §2, with “Transformed Ba/F3 cells and the NSCLC cell line H1781 (with HER2 insertion VC) were cultured in Roswell Park Memorial Institute-1640 medium (Gibco) with 10% fetal bovine serum and 1% penicillin/streptomycin (Gibco).” left out
as §3, §4

Ba/F3 cells HER2 InsWLV = Ba/F3 cells HER2 InsWLV (Homo sapiens, UniProt P04626, DELINS774-774WLV, cells depend on it); assay: Antiproliferative activities (MTS assay), Ba/F3 cells HER2 InsWLV; format: cell-based; conditions: 72 hours
Protocol: as §1
as §2, with “Transformed Ba/F3 cells and the NSCLC cell line H1781 (with HER2 insertion VC) were cultured in Roswell Park Memorial Institute-1640 medium (Gibco) with 10% fetal bovine serum and 1% penicillin/streptomycin (Gibco).” left out
as §3, §4

WT EGFR = WT EGFR (Homo sapiens, UniProt P00533); assay: Biochemical activities, WT EGFR
Chain of WT EGFR (P00533 25-1210): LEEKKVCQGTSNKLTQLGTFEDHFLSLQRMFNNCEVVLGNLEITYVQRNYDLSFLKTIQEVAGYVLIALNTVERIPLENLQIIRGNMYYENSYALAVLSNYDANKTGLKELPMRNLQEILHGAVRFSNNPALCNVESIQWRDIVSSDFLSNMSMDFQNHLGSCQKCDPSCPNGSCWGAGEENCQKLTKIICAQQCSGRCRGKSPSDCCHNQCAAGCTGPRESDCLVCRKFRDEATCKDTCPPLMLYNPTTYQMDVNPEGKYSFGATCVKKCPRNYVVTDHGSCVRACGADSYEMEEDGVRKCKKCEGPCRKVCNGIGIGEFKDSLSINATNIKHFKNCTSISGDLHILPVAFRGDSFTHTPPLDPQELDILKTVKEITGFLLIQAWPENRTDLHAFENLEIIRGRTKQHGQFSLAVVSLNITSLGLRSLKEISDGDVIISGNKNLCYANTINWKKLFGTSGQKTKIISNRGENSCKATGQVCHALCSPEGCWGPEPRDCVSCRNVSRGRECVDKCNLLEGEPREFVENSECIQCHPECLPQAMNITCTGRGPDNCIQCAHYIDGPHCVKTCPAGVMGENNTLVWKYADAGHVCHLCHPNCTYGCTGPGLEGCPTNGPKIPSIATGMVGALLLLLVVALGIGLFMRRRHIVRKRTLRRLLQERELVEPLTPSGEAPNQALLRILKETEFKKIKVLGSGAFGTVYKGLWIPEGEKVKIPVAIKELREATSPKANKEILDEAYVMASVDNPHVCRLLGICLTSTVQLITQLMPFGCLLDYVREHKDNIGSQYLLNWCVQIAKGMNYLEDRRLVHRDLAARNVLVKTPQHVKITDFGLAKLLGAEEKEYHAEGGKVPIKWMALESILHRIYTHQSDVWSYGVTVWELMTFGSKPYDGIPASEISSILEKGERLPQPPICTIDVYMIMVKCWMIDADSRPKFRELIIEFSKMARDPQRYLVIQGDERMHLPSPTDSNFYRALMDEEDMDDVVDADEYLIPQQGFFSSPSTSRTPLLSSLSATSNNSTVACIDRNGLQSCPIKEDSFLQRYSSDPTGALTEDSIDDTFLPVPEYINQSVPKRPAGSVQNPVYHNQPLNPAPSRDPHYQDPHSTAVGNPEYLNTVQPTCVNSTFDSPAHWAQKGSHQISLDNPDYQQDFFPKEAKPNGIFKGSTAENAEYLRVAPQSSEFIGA

Ba/F3 cells HER2 InsVC = Ba/F3 cells HER2 InsVC (Homo sapiens, UniProt P04626, DELINS776-776VC, cells depend on it); assay: Antiproliferative activities (MTS assay), Ba/F3 cells HER2 InsVC; format: cell-based; conditions: 72 hours
Protocol: as §1
as §2, with “Transformed Ba/F3 cells and the NSCLC cell line H1781 (with HER2 insertion VC) were cultured in Roswell Park Memorial Institute-1640 medium (Gibco) with 10% fetal bovine serum and 1% penicillin/streptomycin (Gibco).” left out
as §3, §4

Structure (SMILES) | EC50 (H1781 (HER2 InsVC)) | EC50 [1] | EC50 [2] | EC50 [4] | EC50 (Ba/F3 cells WT EGFR) | EC50 (Ba/F3 cells HER2 InsGSP) | EC50 (Ba/F3 cells WT HER2 [5]) | EGFR EC50/HER2 EC50 (Ba/F3 cells WT HER2 [6]) | EC50 (WT HER2) | EC50 (Ba/F3 cells HER2 InsYVMA) | EC50 (Ba/F3 cells HER2 InsWLV) | EC50 (WT EGFR) | EC50 (Ba/F3 cells HER2 InsVC) | response to treatment of patients harboring HER2 mutations (HER2 mutations) | response of patients with HER2 insYVMA [3] | inhibition of HER2 and its mutant over EGFR (Ba/F3 cells WT HER2 [6]; FIG. 4 bar graph)
CN(C)C/C=C/C(=O)Nc1cc2c(Nc3ccc(F)c(Cl)c3)ncnc2cc1O[C@H]1CCOC1 [Afatinib] | 100 to 250 nM | 100 to 250 nM | 100 to 250 nM | < 100 nM |  |  |  |  |  |  |  |  |  | partially responded | durable responses | 
CCOc1cc2ncc(C#N)c(Nc3ccc(Oc4ccn5ncnc5c4)c(F)c3)c2cc1NC(=O)/C=C/CN(C)C [Compound 2] |  |  |  |  | > 500 nM | < 100 nM | < 100 nM | 222 | < 100 nM | < 100 nM | 100 to 250 nM | 100 to 250 nM | 250 to 500 nM |  |  | 
CCOc1cc2ncc(C#N)c(Nc3ccc(Oc4ccn5ccnc5c4)c(C)c3)c2cc1NC(=O)/C=C/CN(C)C [Compound 4] |  |  |  |  | > 500 nM | < 100 nM | < 100 nM | 49 |  | < 100 nM | 100 to 250 nM |  | < 100 nM |  |  | 
CCOc1cc2ncc(C#N)c(Nc3ccc(Oc4ccc5ccn(C)c5c4)c(C)c3)c2cc1NC(=O)/C=C/CN(C)C [Compound 6] |  |  |  |  | > 500 nM | < 100 nM | < 100 nM | 178 |  | < 100 nM | 100 to 250 nM |  | < 100 nM |  |  | 
Cc1cc(Nc2ncnc3ccc(NC4=NC(C)(C)CO4)cc23)ccc1Oc1ccn2ncnc2c1 [Irbinitinib, reference compound] | ≥ 500 nM | ≥ 500 nM | ≥ 500 nM | 100 to 250 nM | > 500 nM | 100 to 250 nM | 250 to 500 nM | 18 | < 100 nM | 100 to 250 nM | 250 to 500 nM | 250 to 500 nM | > 500 nM |  |  | 
COc1cc2ncnc(Nc3ccc(F)c(Cl)c3)c2cc1NC(=O)/C=C/CN1CCCCC1 [dacomitinib] |  |  |  |  |  |  |  |  |  |  |  |  |  | partially responded | no response | 

The next lines start with results.

EC50 (H1781 (HER2 InsVC)) | EC50 [1] | EC50 [2] | EC50 [4] | EC50 (Ba/F3 cells WT EGFR) | EC50 (Ba/F3 cells HER2 InsGSP) | EC50 (Ba/F3 cells WT HER2 [5]) | EGFR EC50/HER2 EC50 (Ba/F3 cells WT HER2 [6]) | EC50 (WT HER2) | EC50 (Ba/F3 cells HER2 InsYVMA) | EC50 (Ba/F3 cells HER2 InsWLV) | EC50 (WT EGFR) | EC50 (Ba/F3 cells HER2 InsVC) | Structure (SMILES) | response to treatment of patients harboring HER2 mutations (HER2 mutations) | response of patients with HER2 insYVMA [3] | inhibition of HER2 and its mutant over EGFR (Ba/F3 cells WT HER2 [6]; FIG. 4 bar graph)
100 to 250 nM | 100 to 250 nM | < 100 nM | < 100 nM | 250 to 500 nM | < 100 nM | < 100 nM | 32 | < 100 nM | < 100 nM | < 100 nM | 100 to 250 nM | < 100 nM | CCOc1cc2ncc(C#N)c(Nc3ccc(Oc4ccn5ncnc5c4)c(C)c3)c2cc1NC(=O)/C=C/CN(C)C [Compound 1, (E)-N-(4-((4-([1,2,4]triazolo[1,5-a]pyridin-7-yloxy)-3-methylphenyl)amino)-3-cyano-7-ethoxyquinolin-6-yl)-4-(dimethylamino)but-2-enamide] |  |  | selective inhibition
 |  |  |  | 250 to 500 nM | < 100 nM | < 100 nM | 87 |  | < 100 nM | < 100 nM |  | < 100 nM | CCOc1cc2ncc(C#N)c(Nc3ccc(Oc4ccn5ncnc5c4)c(Cl)c3)c2cc1NC(=O)/C=C/CN(C)C [Compound 3] |  |  | 
 |  |  |  | 100 to 250 nM | < 100 nM | < 100 nM | 6 |  | < 100 nM | 100 to 250 nM |  | < 100 nM | CCOc1cc2ncc(C#N)c(Nc3ccc(Oc4ccn5nccc5c4)c(C)c3)c2cc1NC(=O)/C=C/CN(C)C [Compound 5] |  |  | 
